From paper PMC4565196 (Biochimica et biophysica acta, 2014)

How the values were obtained:
[1] = tested on: A2AR single and double Cys-to-Ala variants; assay: Fluorescent-ligand binding to the A2AR variants; design: species or system human; details: HEK-293 cells, untagged A2AR constructs, 70 nM FITC-APEC, 1 h at 37 °C
A2a–adenosine receptors = details: high affinity fluorescent agonist; cited from earlier work

Which “fluorescent ligand binding at the cell surface” value [1] does the source give for `CCNC(=O)[C@H]1O[C@@H](n2cnc3c(N)nc(NCCc4ccc(CCC(=O)NCCNC(=S)Nc5ccc6c(c5)C(=O)OC6(c5ccc(O)cc5)c5ccc(O)cc5)cc4)nc32)[C@H](O)[C@@H]1O` [FITC-APEC, 2-[2-[4-[2-[2-[1,3-Dihydro-1,1-bis (4-hydroxyphenyl)-3-oxo-5-isobenzofuranthioureidyl]ethylaminocarbonyl]ethyl]phenyl]ethylamino]-5N′-ethylcarboxamidoadenosine] here?
Its value is “capable of binding”.

And the Kd (A2a–adenosine receptors)?
The Kd was 0.057 µM.
